US10294236B2, “Compounds as rearranged during transfection (RET) inhibitors” (GLAXOSMITHKLINE INTELLECTUAL PROPERTY DEVELOPMENT LIMITED, priority 2014, dated 2019)
Structures can show the parent of a compound that is named as a salt.

target: T1, Human RET kinase cytoplasmic domain (Homo sapiens, UniProt P07949); assay: RET kinase enzymatic assay; assay type: biochemical
T1 construct: made in house
T1 sequence (P07949 658-1114): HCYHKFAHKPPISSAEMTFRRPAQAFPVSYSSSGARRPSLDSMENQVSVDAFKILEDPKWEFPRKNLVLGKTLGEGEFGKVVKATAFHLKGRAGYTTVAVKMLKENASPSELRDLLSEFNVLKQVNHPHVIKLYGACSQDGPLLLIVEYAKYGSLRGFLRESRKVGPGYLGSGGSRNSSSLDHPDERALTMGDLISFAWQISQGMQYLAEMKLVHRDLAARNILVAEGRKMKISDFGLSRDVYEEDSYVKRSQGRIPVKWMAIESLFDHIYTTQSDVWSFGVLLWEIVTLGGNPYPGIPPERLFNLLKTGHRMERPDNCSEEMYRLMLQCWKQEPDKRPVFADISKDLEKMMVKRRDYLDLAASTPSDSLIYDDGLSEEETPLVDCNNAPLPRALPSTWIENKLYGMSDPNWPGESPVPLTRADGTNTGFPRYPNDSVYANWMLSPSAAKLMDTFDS
Experimental: GST-RET was purified using glutathione sepharose chromatography. The RET kinase enzymatic assay was performed in a total volume of 10 uL with increasing concentrations of RET kinase inhibitor as a singlet in a 384 well format as follows: RET inhibitor compound plates are prepared by adding 100 nL of RET inhibitor at different concentrations to a 384-well plate. 5 μL/well of a 2× enzyme mix (50 mM HEPES (4-(2-hydroxyethyl)-1-piperazineethanesulfonic acid); 1 mM CHAPS (3-[(3-cholamidopropyl)dimethylammonio]-1-propanesulfonate); 0.1 mg/mL BSA (bovine serum albumin); 1 mM DTT (dithiothreitol); 0.2 nM RET kinase) was added to the 384-well plate and incubated for 30 minutes at 23° C. 5 µL/well of a 2× substrate mix (50 mM HEPES; 1 mM CHAPS; 0.1 mg/mL BSA; 20 μM adenosine triphosphate; 20 mM MgCl2 and 1 μM biotinylated peptide substrate) was added and incubated for 1 hour at 23° C. […] IC50s were fitted using GraphPad Prism to a sigmoidal dose response.

| Compound | IC50 [nM] |
| --- | --- |
| CCOc1cc(-c2nc(C)c(NC(=O)Nc3cc(-n4cnc(C)c4)cc(C(F)(F)F)c3)c(C)n2)c[nH]c1=O [Example 53, 1-(2-(5-Ethoxy-6-oxo-1,6-dihydropyridin-3-yl)-4,6-dimethylpyrimidin-5-yl)-3-(3-(4-methyl-1H-imidazol-1-yl)-5-(trifluoromethyl)phenyl)urea] | < 100 |
| CCOc1cc(=O)[nH]cc1-c1ncc(NC(=O)Nc2ccc(Cl)c(C(F)(F)F)c2)c(C)n1 [Example 54, 1-(4-Chloro-3-(trifluoromethyl)phenyl)-3-(2-(4-ethoxy-6-oxo-1,6-dihydropyridin-3-yl)-4-methylpyrimidin-5-yl)urea] | < 100 |
| CCOc1cc(=O)[nH]cc1-c1ncc(NC(=O)Nc2ccc(CN(C)C)c(C(F)(F)F)c2)c(C)n1 [Example 55, 1-(4-((Dimethylamino)methyl)-3-(trifluoromethyl)phenyl)-3-(2-(4-ethoxy-6-oxo-1,6-dihydropyridin-3-yl)-4-methylpyrimidin-5-yl)urea] | < 100 |
| CCOc1cc(-c2ncc(NC(=O)Nc3cc(-n4cnc(C)c4)cc(C(F)(F)F)c3)c(CC)n2)c[nH]c1=O [Example 56, 1-(2-(5-Ethoxy-6-oxo-1,6-dihydropyridin-3-yl)-4-ethylpyrimidin-5-yl)-3-(3-(4-methyl-1H-imidazol-1-yl)-5-(trifluoromethyl)phenyl)urea] | < 100 |
| CCOc1cc(-c2ncc(NC(=O)Nc3cc(-n4cnc(C)c4)cc(C(F)(F)F)c3)c(C)n2)c[nH]c1=O [Example 57, 1-(2-(5-Ethoxy-6-oxo-1,6-dihydropyridin-3-yl)-4-methylpyrimidin-5-yl)-3-(3-(4-methyl-1H-imidazol-1-yl)-5-(trifluoromethyl)phenyl)urea] | < 100 |
| CCOc1cc(-c2ncc(NC(=O)Nc3ccc(CN(C)C)c(C(F)(F)F)c3)c(C)n2)c[nH]c1=O [Example 58, 1-(4-((Dimethylamino)methyl)-3-(trifluoromethyl)phenyl)-3-(2-(5-ethoxy-6-oxo-1,6-dihydropyridin-3-yl)-4-methylpyrimidin-5-yl)urea] | < 100 |
| CCOc1cc(-c2nc(C)c(NC(=O)Nc3ccc(CN(C)C)c(C(F)(F)F)c3)c(C)n2)c[nH]c1=O [Example 59, 1-(4-((Dimethylamino)methyl)-3-(trifluoromethyl)phenyl)-3-(2-(5-ethoxy-6-oxo-1,6-dihydropyridin-3-yl)-4,6-dimethylpyrimidin-5-yl)urea] | < 100 |
| CCOc1cc(-c2ncc(NC(=O)Nc3ccc(Cl)c(C(F)(F)F)c3)c(C)n2)c[nH]c1=O [Example 60, 1-(4-Chloro-3-(trifluoromethyl)phenyl)-3-(2-(5-ethoxy-6-oxo-1,6-dihydropyridin-3-yl)-4-methylpyrimidin-5-yl)urea] | < 100 |
| CCOc1cc(=O)[nH]cc1-c1ncc(NC(=O)Nc2ccc(C(C)(C)C(N)=O)c(C(F)(F)F)c2)c(C)n1 [Example 61, 2-(4-(3-(2-(4-Ethoxy-6-oxo-1,6-dihydropyridin-3-yl)-4-methylpyrimidin-5-yl)ureido)-2-(trifluoromethyl)phenyl)-2-methylpropanamide] | < 100 |
| CCOc1cc(-c2cnc(NC(=O)Nc3ccc(OC4(C)COC4)c(C(F)(F)F)c3)cc2C)c[nH]c1=O [Example 62, 1-(5′-Ethoxy-4-methyl-6′-oxo-1′,6′-dihydro-[3,3′-bipyridin]-6-yl)-3-(4-((3-methyloxetan-3-yl)oxy)-3-(trifluoromethyl)phenyl)urea] | < 100 |
| CCOc1cc(-c2ncc(NC(=O)Nc3ccc(C(C)(C)C(N)=O)c(C(F)(F)F)c3)c(C)n2)c[nH]c1=O [Example 63, 2-(4-(3-(2-(5-Ethoxy-6-oxo-1,6-dihydropyridin-3-yl)-4-methylpyrimidin-5-yl)ureido)-2-(trifluoromethyl)phenyl)-2-methylpropanamide] | < 100 |
| CCOc1cc(-c2ccc(NC(=O)Nc3ccc(CC(C)(C)CO)c(C(F)(F)F)c3)c(F)c2)c[nH]c1=O [Example 64, 1-(4-(5-Ethoxy-6-oxo-1,6-dihydropyridin-3-yl)-2-fluorophenyl)-3-(4-(3-hydroxy-2,2-dimethylpropyl)-3-(trifluoromethyl)phenyl)urea] | < 100 |
| CCOc1cc(-c2ncc(NC(=O)Nc3ccc(C4(CO)CC4)c(C(F)(F)F)c3)c(C)n2)c[nH]c1=O [Example 66, 1-(2-(5-Ethoxy-6-oxo-1,6-dihydropyridin-3-yl)-4-methylpyrimidin-5-yl)-3-(4-(1-(hydroxymethyl)cyclopropyl)-3-(trifluoromethyl)phenyl)urea hydrochloride] | < 100 |
| CCOc1cc(=O)[nH]cc1-c1ncc(NC(=O)Nc2cc(-c3nnc(C)o3)cc(C(F)(F)F)c2)c(C)n1 [Example 67, 1-(2-(4-Ethoxy-6-oxo-1,6-dihydropyridin-3-yl)-4-methylpyrimidin-5-yl)-3-(3-(5-methyl-1,3,4-oxadiazol-2-yl)-5-(trifluoromethyl)phenyl)urea] | < 100 |
| CC(C)(C)c1cc(NC(=O)Nc2ccc(-c3ccc(=O)[nH]c3)cc2)n(-c2ccccc2)n1 [Example 68, 1-(3-(tert-Butyl)-1-phenyl-1H-pyrazol-5-yl)-3-(4-(6-oxo-1,6-dihydropyridin-3-yl)phenyl)urea] | < 100 |
| CCOc1cc(-c2ncc(NC(=O)Nc3ccc(C(C)(C)CN)c(C(F)(F)F)c3)c(C)n2)c[nH]c1=O [Example 70, 1-(4-(1-Amino-2-methylpropan-2-yl)-3-(trifluoromethyl)phenyl)-3-(2-(5-ethoxy-6-oxo-1,6-dihydropyridin-3-yl)-4-methylpyrimidin-5-yl)urea dihydrochloride] | < 100 |
| CCOc1cc(-c2ncc(NC(=O)Nc3ccc(C(C)(C)O)c(C(F)(F)F)c3)c(C)n2)c[nH]c1=O [Example 71, 1-(2-(5-Ethoxy-6-oxo-1,6-dihydropyridin-3-yl)-4-methylpyrimidin-5-yl)-3-(4-(2-hydroxypropan-2-yl)-3-(trifluoromethyl)phenyl)urea] | < 100 |

| Compound | IC50 [nM] |
| --- | --- |
| CCOc1cc(-c2ccc(NC(=O)Nc3cc(-n4cncn4)cc(C(F)(F)F)c3)c(F)c2)c[nH]c1=O [Example 72, 1-(3-(1H-1,2,4-Triazol-1-yl)-5-(trifluoromethyl)phenyl)-3-(4-(5-ethoxy-6-oxo-1,6-dihydropyridin-3-yl)-2-fluorophenyl)urea hydrochloride] | < 100 |
| CCOc1cc(-c2ncc(NC(=O)Nc3ccc(C(C)(C)CN(C)C)c(C(F)(F)F)c3)c(C)n2)c[nH]c1=O [Example 73, 1-(4-(1-(Dimethylamino)-2-methylpropan-2-yl)-3-(trifluoromethyl)phenyl)-3-(2-(5-ethoxy-6-oxo-1,6-dihydropyridin-3-yl)-4-methylpyrimidin-5-yl)urea dihydrochloride] | < 100 |
| CCOc1cc(-c2ncc(NC(=O)Nc3cc(OCCN(C)C)cc(C(F)(F)F)c3)c(C)n2)c[nH]c1=O [Example 74, 1-(3-(2-(Dimethylamino)ethoxy)-5-(trifluoromethyl)phenyl)-3-(2-(5-ethoxy-6-oxo-1,6-dihydropyridin-3-yl)-4-methylpyrimidin-5-yl)urea dihydrochloride] | < 100 |
| CC(C)(O)c1ccc(NC(=O)Nc2ccc(-c3c[nH]c(=O)c4ccccc34)cc2F)cc1C(F)(F)F [Example 75] | < 100 |
| CCOc1cc(-c2ccc(NC(=O)Nc3ccc(CN(C)C)c(C(F)(F)F)c3)c(F)c2)c[nH]c1=O [Example 76] | < 100 |
| CCOc1cc(-c2ccc(NC(=O)Nc3ccc(C4(CO)CC4)c(C(F)(F)F)c3)c(F)c2)c[nH]c1=O [Example 77] | < 100 |
| CCOc1cc(-c2ccc(NC(=O)Nc3cc(C(F)(F)F)ccc3F)c(F)c2)c[nH]c1=O [Example 78] | < 100 |
| CCOc1cc(-c2ccc(NC(=O)Nc3ccc(OC(C)(C)C)c(C(F)(F)F)c3)cc2)c[nH]c1=O [Example 79] | < 100 |
| CCOc1ccc(NC(=O)Nc2ccc(-c3c[nH]c(=O)c(OCC)c3)cc2F)cc1C(F)(F)F [Example 80] | < 100 |
| CCOc1cc(-c2ccc(NC(=O)Nc3ccc(CC(C)(C)C#N)c(C(F)(F)F)c3)c(F)c2)c[nH]c1=O [Example 81] | < 100 |
| CCOc1cc(-c2ccc(NC(=O)Nc3ccc(OC(C)C)c(C(F)(F)F)c3)c(F)c2)c[nH]c1=O [Example 82] | < 100 |
| CCOc1cc(-c2ccc(NC(=O)Nc3ccc(OC(C)(C)C#N)c(C(F)(F)F)c3)c(F)c2)c[nH]c1=O [Example 83] | < 100 |
| CCOc1cc(-c2ccc(NC(=O)Nc3ccc(OC4(C)CC(O)C4)c(C(F)(F)F)c3)c(F)c2)c[nH]c1=O (stereo not drawn) [Example 84] | < 100 |
| CCOc1cc(-c2ccc(NC(=O)Nc3ccc(OC4(C)CCN(C(C)C)C4)c(C(F)(F)F)c3)c(F)c2)c[nH]c1=O (stereo not drawn) [Example 85] | < 100 |
| CCOc1cc(Oc2ccc(NC(=O)Nc3cc(C(F)(F)F)ccc3F)cc2)c[nH]c1=O [Example 86] | < 100 |
| CCOc1cc(-c2ccc(NC(=O)Nc3ccc(OC4(C)COC4)c(C(F)(F)F)c3)c(Cl)n2)c[nH]c1=O [Example 87] | < 100 |
